Laboratory results as given in patent US11976057B2, “MrgX2 antagonists” (GlaxoSmithKline Intellectual Property Development Limited, priority 2020, dated 2024).

Target: T1, human MRGPRX2 (Homo sapiens, UniProt Q96LB1)
T1 sequence (Q96LB1 1-330): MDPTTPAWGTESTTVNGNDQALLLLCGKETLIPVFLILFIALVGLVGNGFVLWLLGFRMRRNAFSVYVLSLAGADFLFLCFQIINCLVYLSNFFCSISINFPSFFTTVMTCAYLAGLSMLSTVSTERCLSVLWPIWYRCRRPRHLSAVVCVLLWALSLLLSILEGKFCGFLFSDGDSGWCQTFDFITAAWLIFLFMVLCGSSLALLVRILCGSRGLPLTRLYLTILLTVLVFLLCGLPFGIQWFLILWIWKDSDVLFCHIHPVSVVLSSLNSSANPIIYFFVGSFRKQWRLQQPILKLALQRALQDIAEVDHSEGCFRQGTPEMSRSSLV
Assay: Ca2+ mobilization assay (FLIPR TETRA): inhibition of Cortistatin-14 mediated MRGPRX2 activation

| SMILES | IC50 [nM] |
| --- | --- |
| C[C@@H](C(=O)Nc1ccc(Oc2ccc(F)cc2F)cn1)N1CCC(F)(F)[C@@H](c2c[nH]c(=O)c(CNC3CC(F)(F)C3)c2)C1 [Example 241, (S)-2-((S)-3-(5-(((3,3-difluorocyclobutyl)amino)methyl)-6-oxo-1,6-dihydropyridin-3-yl)-4,4-difluoropiperidin-1-yl)-N-(5-(2,4-difluorophenoxy)pyridin-2-yl)propanamide] | ≤ 10 |
| CC(C(=O)Nc1ccc2cc(C3CC3)cnc2n1)N1CCC(F)(F)[C@@H](c2ccc(=O)[nH]c2)C1 (stereo partly drawn) [Example 77, N-(6-cyclopropyl-1,8-naphthyridin-2-yl)-2-((S)-4,4-difluoro-3-(6-oxo-1,6-dihydropyridin-3-yl)piperidin-1-yl)propanamide] | 100 to 3160 |
| C[C@@H](C(=O)Nc1ncc(OCC2CC2)cc1F)N1CCC(F)(F)[C@@H](c2ccc(=O)[nH]c2)C1 [Example 28, (S)-N-(5-(cyclopropyl-methoxy)-3-fluoropyridin-2-yl)-2-((S)-4,4-difluoro-3-(6-oxo-1,6-dihydropyridin-3-yl)piperidin-1-yl)propanamide] | 100 to 3160 |
| CC(C(=O)Nc1ccc(OC2CCCCC2)cn1)N1CCC(F)(F)[C@@H](c2ccc(=O)[nH]c2)C1 (stereo partly drawn) [Example 24, N-(5-(cyclohexyloxy)pyridin-2-yl)-2-((S)-4,4-difluoro-3-(6-oxo-1,6-dihydropyridin-3-yl)piperidin-1-yl)propanamide] | 100 to 3160 |
| C[C@@H](C(=O)Nc1ccc2ccccc2n1)N1CCC(F)(F)[C@@H](c2ccc(=O)[nH]c2)C1 [Example 54, (S)-2-((S)-4,4-difluoro-3-(6-oxo-1,6-dihydropyridin-3-yl)piperidin-1-yl)-N-(quinolin-2-yl)propanamide] | 100 to 3160 |
| C[C@@H](C(=O)Nc1ccc(OCc2ccccc2)cn1)N1CCC(F)(F)[C@@H](c2ccc(=O)[nH]c2)C1 [Example 22, (S)-N-(5-(benzyloxy)pyridin-2-yl)-2-((S)-4,4-difluoro-3-(6-oxo-1,6-dihydropyridin-3-yl)piperidin-1-yl)propanamide] | 100 to 3160 |
| C[C@@H](C(=O)Nc1ccc(Oc2ccc(F)cn2)cn1)N1CCC(F)(F)[C@@H](c2cc[n+]([O-])cc2)C1 [Example 115] | 10 to 100 |
| C[C@@H](C(=O)Nc1ccc(Oc2ccc(F)cc2F)cn1)N1CCC(F)(F)[C@@H](c2ccc(=O)[nH]c2)C1 [Example 4, (S)-2-((S)-4,4-difluoro-3-(6-oxo-1,6-dihydropyridin-3-yl)piperidin-1-yl)-N-(5-(2,4-difluorophenoxy)pyridin-2-yl)propanamide] | ≤ 10 |
| C[C@@H](C(=O)Nc1ccc(C2CC2)cn1)N1CCC(F)(F)[C@@H](c2c[nH]c(=O)cn2)C1 [Example 137, (S)-N-(5-cyclopropylpyridin-2-yl)-2-((R)-4,4-difluoro-3-(5-oxo-4,5-dihydropyrazin-2-yl)piperidin-1-yl)propanamide] | 100 to 3160 |
| CC(C)n1cc(C2CN([C@@H](C)C(=O)Nc3ccc(F)cn3)CCC2(F)F)ccc1=O (stereo partly drawn) [Example 194, (2S)-2-(4,4-difluoro-3-(1-isopropyl-6-oxo-1,6-dihydropyridin-3-yl)piperidin-1-yl)-N-(5-fluoropyridin-2-yl)propanamide] | 100 to 3160 |
| CC(C(=O)Nc1ccc(Oc2ccccc2C#N)nn1)N1CCC(F)(F)[C@@H](c2ccc(=O)[nH]c2)C1 (stereo partly drawn) [Example 62, N-(6-(2-cyanophenoxy)pyridazin-3-yl)-2-((S)-4,4-difluoro-3-(6-oxo-1,6-dihydropyridin-3-yl)piperidin-1-yl)propanamide] | 3160 to 31600 |
| COc1cccc(Oc2ccc(NC(=O)C(C)N3CCC(F)(F)[C@@H](c4ccc(=O)[nH]c4)C3)nc2)n1 (stereo partly drawn) [Example 95, 2-((S)-4,4-difluoro-3-(6-oxo-1,6-dihydropyridin-3-yl)piperidin-1-yl)-N-(5-((6-methoxypyridin-2-yl)oxy)pyridin-2-yl)propanamide] | 10 to 100 |
